# Test results from US9427408B2, “Silica-matrix forming compositions, materials formed therefrom, and methods of using the same” (priority 2011, dated 2016).
# Tests used:
# [1] = test system: MEF cells; format: cell-based; settings: 0.19 and 0.38 M EG, 48 h incubation
# Description: (§1) Human foreskin fibroblasts (HFF), and mouse embryonic fibroblasts (MEF) were obtained from the American Type Cell Collection (Manasas, Va.). HFF and MEF cells were cultured in DMEM basal media supplemented with 15% fetal bovine serum (FBS), and 1% penicillin/streptomycin. Cells were incubated in a 5% CO2 atmosphere at 37° C. until they reached 80-90% confluence. Cells were then washed with phosphate buffer saline (PBS) and trypsinized with 0.25% Trypsin-EDTA for 5 min at 37° C. For cytotoxicity measurements and encapsulation experiments, cells were centrifuged at 800 rpm for 5 min. The supernatant was removed and the pelleted cells were suspended in their own growth media at a concentration of about 500,000 cells/ml.
# (§2) Membrane integrity of the encapsulated cells in silica and SPEG gels was measured using a live-dead fluorescence assay containing Hoechst (H) and Propidium Iodide (PI) fluorescent dyes. A Nikon Eclipse T200 microscope (Nikon Instruments Inc., Melville, N.Y.) equipped with 10×, and 20× objectives were used to collect the bright field and fluorescent images.
# (§3) MA of the encapsulated cells was measured with alamar blue (AB) fluorescence. For fluorescence measurements a SpectraMAX Gemini microplate reader (Molecular Devices Inc, Sunnyvale, Calif.) was used. The samples were excited at 540 nm and their emission was measured at 590 nm. LDH assay was performed 24 h after encapsulation of the cells. The assay was performed using a commercially available kit (Roche Applied Science, Indianapolis, Ind.). The levels of extracellular LDH activity were determined using a UV-vis SpectraMAX microplate reader (Molecular Devices, Sunnyvale, Calif.) by absorbance at 492 nm.
# (§4) During the encapsulation process, mammalian cells were exposed to individual and aggregated SNPs in the surrounding solutions as gel formation proceeds. SNPs can be mildly cytotoxic. The toxicity of the encapsulation process was analyzed by incubating mammalian cells in 0.01 and 0.03 M SNP solutions. These were the concentrations used in the gels. After 24 h of incubation in the presence of SNPs, the cell membrane integrity and MA was measured.
# (§5) Another factor for cytotoxicity is the formation of cytotoxic by-products such as EG during the hydrolysis reaction. HFF and MEF cells were incubated with 0.19 and 0.38 M EG to test for cytotoxicity. The concentrations of EG used in these experiments were based on the stoichiometric reaction of 10% (v/v) THEOS assuming a complete reaction. […] FIG. 6 illustrates cytotoxicity of SNPs and EG on: (A) HFF, (B) MEF.
# [2] = test system: HFF cells; format: cell-based; settings: 0.19 and 0.38 M EG, 48 h incubation
# Description: as §1, §2, §3, §4, §5
smiles,measurement,setting,value
"OCCO [EG, ethylene glycol]",cell membrane damage,[1],did not cause any cell membrane damage
same,effect on MA of the cells,[1],nor had any effects on the MA
same,cell membrane damage,[2],did not cause any cell membrane damage
same,effect on MA of the cells,[2],nor had any effects on the MA
